Source: patent US6063803A, “Octahydropyrrolo-[3,4-c]carbazoles useful as analgesic agents” (Ortho-McNeil Pharmaceutical, Inc., priority 1999, dated 2000)
Where a name gives a salt, the structure may show the parent alone.

Experiment: mouse hot plate assay (48° C.)
Type: in vivo, mice
Conditions: Mus musculus, po, 0.5 h
Experimental: The test was essentially described by N. Eddy and D. Leimbach, Synthetic Analgesics II Dithienylbutenyl- and Dithienylbutylamines, J. Pharmacol. Exp. Ther., 107, 385-93 (1953) and J. O'Callaghan and S. Holtzman, Qualification of the Analgesic Activity of Narcotic Antagonists by a Modified Hot-Plate Procedure, J. Pharmacol. Exp. Ther, 192, 497-505 (1975), with minor modifications. Mice were placed on a heated surface (48° C.) and the time interval (seconds) between placement and a shaking, licking, or tucking of the hind paw was recorded as the predrug latency response. This procedure was repeated 30 minutes after the administration of a test compound (p.o., 10 mL/kg). The percent maximum possible antinociceptive effect (% MPE) was determined using the following formula: % MPE=100×(Test latency-Predrug latency)/(Cutoff time-Predrug Latency), using the predrug latency of each animal and cutoff time established to prevent injury to the animal. The cutoff time was 90s.
The ED50 value and 95% confidence intervals were determined using a computer-assisted linear regression analysis of the dose-response curve, including an analysis of variance test for linearity. Oral dosing of Compound 58 produced an analgesic effect after 15 min. This effect lasted for one hour.

`COc1cccc(C2(O)CCCCC2CN(C)C)c1` (stereo not shown) [tramadol, reference compound] gave an ED50 of 28.3 mg/kg.

Experiment: rat air-induced writhing (abdominal constriction) assay
Type: in vivo, rats
Conditions: Rattus norvegicus, po
Experimental: The analgesic activity was determined in another model using rats as the test animal. The procedure was essentially described by P. VonVoightlander et al. in Air-induced Writhing, a Rapid Broad Spectrum Assay for Analgesics, Drug Dev. Res., 2, 577-81, (1982). The test compound or vehicle was administered p.o. (2 mL/kg) and after 30 min, the animals received an i.p. injection of air (10 mL). The animals were placed into individual observation chambers and observed for 30 min for the occurrence of abdominal constriction as defined above. The percent inhibition of this response was calculated as follows. The % inhibition of response, i.e., % analgesia is equal to the number nonresponding drug-treated animals×100 divided by the number of animals in the group. […] This effect lasted for 2-3 hours.

`COc1cccc(C2(O)CCCCC2CN(C)C)c1` (stereo not shown) [tramadol, reference compound] gave an ED50 of 1.7 mg/kg.

Experiment: mouse acetylcholine bromide-induced abdominal constriction assay
Type: in vivo, mice (Male, Cr1:CD-1)
Conditions: Mus musculus
Experimental: The analgesic activity of compounds of Formula I were determined in the following in vivo assay. The procedure was run essentially as described by H. Collier et al. in B. J. Pharmacol. Chemother., 32: 295-310, 1968, with minor modifications. Mice (Male, Cr1:CD-1, Charles River Laboratories) were used in the following example. The test drugs or appropriate vehicle were administered orally (10 mL/kg, p.o.) or subcutaneously (10 mL/kg, s.c.) and 30 minutes later the animal received an intraperitoneal (i.p.) injection of 5.5 mg/kg acetylcholine bromide. The mice were then placed in glass bell jars and observed for a ten minute observation period for the occurrence of an abdominal constriction response (defined as a wave of constriction and elongation passing caudally along the abdominal wall, accompanied by a twisting of the trunk and followed by extension of the hind limbs). The percent inhibition of this response to antinociceptive stimulus (equated to % analgesia) was calculated as follows: The % inhibition of response, i.e., % analgesia is equal to the number of non-responding drug-treated animals×100 divided by the number of animals in the group.
The ED50 values and their 95% fiducial limits were determined by a computer assisted probit analysis. […] This effect lasted for 4-5 hours.
Table A lists the % inhibition for some compounds of the invention. Unless otherwise indicated the compounds were administered s.c. at 30 mg/kg. [drawing 63]

With `COc1cccc(C2(O)CCCCC2CN(C)C)c1` (stereo not shown) [tramadol, reference compound] the ED50 was 5.4 mg/kg.

Same assay, conditions: Mus musculus, 0.5 h; 30 mg/kg po; acetylcholine bromide 5.5 mg/kg i.p. 30 min later; read-out: % inhibition @ 30 mg/kg (po)

Point of comparison: `CN1C[C@@H]2CCc3[nH]c4c(F)cccc4c3[C@@H]2C1` (relative stereo) [Compound 47], responders at 30 mg/kg 93%. Against it:
- C[C@@H]1C[C@H]2CN(C)C[C@H]2c2c1[nH]c1ccccc21 (relative stereo) [Compound 88, (±)-3aα,5α,10cα-4,5,6,10c-Octahydro-2,5-dimethylpyrrolo[3,4-c]carbazole] — the same, 93%
- Cc1cccc2c3c([nH]c12)CC[C@H]1CN(C)C[C@@H]31 (relative stereo) [Compound 40, (±)-3aα,10cα,-1,2,3,3a,4,5,6,10c-octahydro-2,7-dimethylpyrrolo[3,4-c]carbazole] — lower, 87%
- CN1C[C@@H]2CCc3[nH]c4cccc(Cl)c4c3[C@@H]2C1 (relative stereo) [Compound 38] — lower, 87%
- CN1C[C@@H]2CCc3[nH]c4cccc(F)c4c3[C@@H]2C1 (relative stereo) [Compound 44] — higher, 100%
- CN1C[C@@H]2CCc3[nH]c4cc(F)ccc4c3[C@@H]2C1 (relative stereo) [Compound 30, (±)-3aα,10cα-4,5,6,10c-Octahydro-8-fluoro-2-methylpyrrolo[3,4-c]carbazole Fumarate [1:1.5]] — higher, 100%
- CN1C[C@@H]2CCc3[nH]c4ccccc4c3[C@H]2C1 (relative stereo) [Compound 72, (±)-3aα,10cβ-1,2,3,3a,4,5,6,10c-Octahydro-2-methylpyrrolo-[3,4-c]carbazole Fumarate [1.0:0.55]] — higher, 100%

In the case of `CC(C)N1C[C@@H]2CCc3[nH]c4ccccc4c3[C@@H]2C1` (relative stereo) [Compound 65, (±)-3aα,10cα-4,5,6,10c-Octahydro-2-(1-methylethyl)pyrrolo[3,4-c]carbazole Hydrochloride Hydrate [1.0:1.0:0.13]], the % of mice protected from abdominal constriction (non-responders) at 30 mg/kg was 93%.

Same assay, conditions: Mus musculus, sc, 0.5 h; 30 mg/kg s.c.; acetylcholine bromide 5.5 mg/kg i.p. 30 min later; read-out: % inhibition @ 30 mg/kg

Point of comparison: `CN1CC2CCc3[nH]c4ccccc4c3C2C1` (single isomer, unassigned) [Compound 57], responders at 30 mg/kg 100%. Against it:
- c1ccc2c3c([nH]c2c1)CC[C@H]1CNC[C@@H]31 (relative stereo) [Compound 64, (±)-3aα,10cα-4,5,6,10c-Octahydropyrrolo[3,4-c]carbazole] — lower, 80%
- CN1C[C@@H]2CCc3[nH]c4cc(Cl)ccc4c3[C@@H]2C1 (relative stereo) [Compound 37] — the same, 100%
- CN1C[C@@H]2CCc3[nH]c4ccc(Br)cc4c3[C@@H]2C1 (relative stereo) [Compound 36] — the same, 100%
- CN1C[C@@H]2CCc3[nH]c4c(Br)cccc4c3[C@@H]2C1 (relative stereo) [Compound 45] — lower, 73%
- C[C@@H]1[C@@H]2c3c([nH]c4ccccc34)CC[C@@H]2CN1C (relative stereo) [Compound 69, (±)-1α,3aβ,10cβ-1,2,3,3a,4,5,6,10c-Octahydro-1,2-dimethylpyrrolo-[3,4-c]carbazole] — the same, 100%
- CN1C[C@@H]2CCc3[nH]c4c(Cl)cccc4c3[C@@H]2C1 (relative stereo) [Compound 35] — lower, 93%
- C[C@H]1C[C@H]2CN(C)C[C@H]2c2c1[nH]c1ccccc21 (relative stereo) [Compound 89, (±)-3aα,5β,10cα-4,5,6,10c-Octahydro-2,5-dimethylpyrrolo[3,4-c]carbazole] — the same, 100%
- CN1C[C@@H]2CCc3[nH]c4ccc(F)cc4c3[C@@H]2C1 (relative stereo) [Compound 31] — lower, 93%

Point of comparison: `CN1C[C@@H]2CCc3[nH]c4cccc(C(F)(F)F)c4c3[C@@H]2C1` (relative stereo) [Compound 42], % of mice protected from abdominal constriction (non-responders) at 30 mg/kg 60%. Against it:
- C=CCN1C[C@@H]2CCc3[nH]c4ccccc4c3[C@@H]2C1 (relative stereo) [Compound 66, (±)-3aα,10cα-1,2,3,3a,4,5,6,10c-Octahydro-2-(propenyl)pyrrolo[3,4-c]carbazole Fumarate [1:0.6]] — higher, 100%
- CN1C[C@@H]2C(c3ccccc3)Cc3[nH]c4ccccc4c3[C@@H]2C1 (mixture of isomers) [Compound 75, (±)-3aα,10cα-1,2,3,3a,4,5,6,10c-Octahydro-2-methyl-4-phenylpyrrolo-[3,4-c]carbazole Fumarate [1.0:0.55]] — higher, 100%
- CC(C)(C)N1C[C@@H]2CCc3[nH]c4ccccc4c3[C@@H]2C1 (relative stereo) [Compound 53] — higher, 100%
- CN1C[C@@H]2CCc3[nH]c4cc(C(F)(F)F)ccc4c3[C@@H]2C1 (relative stereo) [Compound 41] — higher, 100%
- Cc1ccc2c3c([nH]c2c1C)CC[C@H]1CN(C)C[C@@H]31 (relative stereo) [Compound 34] — higher, 100%
- CN1C[C@@H]2CCc3[nH]c4c(Cl)ccc(Cl)c4c3[C@@H]2C1 (relative stereo) [Compound 33] — lower, 33%
- CC(C)c1ccc2[nH]c3c(c2c1)[C@@H]1CN(C)C[C@@H]1CC3 (relative stereo) [Compound 39] — lower, 27%
- COc1cccc2c3c([nH]c12)CC[C@H]1CN(C)C[C@@H]31 (relative stereo) [Compound 32] — higher, 100%
- Cc1cc(C)c2c3c([nH]c2c1)CC[C@H]1CN(C)C[C@@H]31 (relative stereo) [Compound 49] — higher, 100%
- CCc1cccc2c3c([nH]c12)CC[C@H]1CN(C)C[C@@H]31 (relative stereo) [Compound 46] — higher, 100%
- CN1C[C@@H]2CCc3[nH]c4cc(F)cc(F)c4c3[C@@H]2C1 (relative stereo) [Compound 50] — higher, 100%
- CN1C[C@@H]2CCc3[nH]c4c(C(F)(F)F)cccc4c3[C@@H]2C1 (relative stereo) [Compound 48] — higher, 100%
- CN1C[C@@H]2CCc3[nH]c4ccc(C#N)cc4c3[C@@H]2C1 (relative stereo) [Compound 73, (±)-3aα,10cα-1,2,3,3a,4,5,6,10c-Octahydro-9-cyano-2-methylpyrrolo-[3,4-c]carbazole] — higher, 100%
